The results in this text go back to US8921555B2, “Substituted-1,3,8-triazaspiro[4.5]decane-2,4-diones” (Merck Sharp & Dohme Corp., priority 2009, dated 2014).

T1 sequence (Q9GZT9 whole entry): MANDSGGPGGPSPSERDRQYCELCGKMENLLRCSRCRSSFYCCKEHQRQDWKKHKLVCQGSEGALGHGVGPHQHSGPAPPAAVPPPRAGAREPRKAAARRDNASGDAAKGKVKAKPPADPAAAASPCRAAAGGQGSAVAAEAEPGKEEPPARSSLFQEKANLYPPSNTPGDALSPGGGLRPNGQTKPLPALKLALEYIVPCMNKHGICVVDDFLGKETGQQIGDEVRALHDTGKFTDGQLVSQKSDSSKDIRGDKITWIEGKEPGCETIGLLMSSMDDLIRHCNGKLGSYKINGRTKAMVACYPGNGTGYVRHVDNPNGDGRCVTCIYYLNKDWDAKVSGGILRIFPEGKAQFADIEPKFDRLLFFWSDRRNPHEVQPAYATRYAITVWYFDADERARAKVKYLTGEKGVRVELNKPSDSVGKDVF

One test concerns the target T1, HIF-PHD2 (Homo sapiens, UniProt Q9GZT9).
T1 construct: FLAG-tagged full length PHD2 expressed in and purified from baculovirus-infected Sf9 cells; FLAG; made in house; host or cells: baculovirus-infected Sf9 cells
Put plainly: Assay for HIF-PHD2 Catalytic Activity (PHD2 Binding Activity). It is filed as biochemical.
Conditions: not given
As for `COc1ccnc(N2C(=O)N(c3ccc(-c4ccccc4)cc3)C(=O)C23CCN(Cc2ncccc2C#N)CC3)n1` [Compound 1-40, 2-{[3-biphenyl-4-yl-1-(4-methoxypyrimidin-2-yl)-2,4-dioxo-1,3,8-triazaspiro[4.5]dec-8-yl]methyl}nicotinonitrile], the IC50 – broadly, the concentration at which inhibition is half-maximal – was above 50 nM.

`Cc1cccnc1CN1CCC2(CC1)C(=O)N(c1ccc(-c3ccccc3)cc1)C(=O)N2c1cnc(O)cn1` [Compound 1-45, 3-biphenyl-4-yl-1-(5-hydroxypyrazin-2-yl)-8-[(3-methylpyridin-2-yl)methyl]-1,3,8-triazaspiro[4.5]decane-2,4-dione] showed an IC50 of 20 to 50 nM.

`COc1ccnc(N2C(=O)N(c3ccc(-c4ccccc4)cc3)C(=O)C23CCN(Cc2ncccc2-c2nnn[nH]2)CC3)n1` [Compound 1-41, 3-biphenyl-4-yl-1-(4-methoxypyrimidin-2-yl)-8-{[3-(1H-tetrazol-5-yl)pyridin-2-yl]methyl}-1,3,8-triazaspiro[4.5]decane-2,4-dione] yielded an IC50 above 50 nM.

For the compound `CCCCOC(=O)c1[nH]cnc1CN1CCC2(CC1)C(=O)N(c1ccc(-c3ccccc3)cc1)C(=O)N2c1cc(OC)ncn1` [Compound 1-48, Butyl 4-{[3-biphenyl-4-yl-1-(6-methoxypyrimidin-4-yl)-2,4-dioxo-1,3,8-triazaspiro[4.5]dec-8-yl]methyl}-1-H-imidazole-5-carboxylate], the IC50 is 0.5 to 20 nM.

Take `O=C(O)Cn1ccnc1CN1CCC2(CC1)C(=O)N(c1ccc(-c3ccccc3)cc1)C(=O)N2c1nccc(O)n1` [Compound 1-23, (2-{[3-biphenyl-4-yl-1-(4-hydroxypyrimidin-2-yl)-2,4-dioxo-1,3,8-triazaspiro[4.5]dec-8-yl]methyl}-1H-imidazol-1-yl)acetic acid]: the IC50 was in the range of 0.5 to 20 nM.

`Cc1cccnc1CN1CCC2(CC1)C(=O)N(c1ccc(-c3ccccc3)cc1)C(=O)N2c1ccnc(O)c1` [Compound 1-58, 3-biphenyl-4-yl-1-(2-hydroxypyridin-4-yl)-8-[(3-methylpyridin-2-yl)methyl]-1,3,8-triazaspiro[4.5]decane-2,4-dione] returned a 50% inhibitory concentration (IC50) of 0.5 to 20 nM.

On to `COC(=O)c1ccc(-c2ccc(N3C(=O)N(c4ccncn4)C4(CCN(Cc5ncccc5C)CC4)C3=O)cc2)c(C)c1` [Compound 8-2, methyl 2-methyl-4′-{8-[(3-methylpyridin-2-yl)methyl]-2,4-dioxo-1-pyrimidin-4-yl-1,3,8-triazaspiro[4.5]dec-3-yl}biphenyl-4-carboxylate], for which the concentration for half-maximal inhibition (IC50) lay within 0.5 to 20 nM.

`COc1ccnc(N2C(=O)N(c3ccc(-c4ccccc4)cc3)C(=O)C23CCN(CC(=O)O)CC3)n1` [Compound 2-6, [3-biphenyl-4-yl-1-(4-methoxypyrimidin-2-yl)-2,4-dioxo-1,3,8-triazaspiro[4.5]dec-8-yl]acetic acid] yielded an IC50 of 0.5 to 20 nM.

`Cc1cccnc1CN1CCC2(CC1)C(=O)N(c1ccc(-c3ccccc3)cc1)C(=O)N2c1ncccc1O` [Compound 1-43, 3-biphenyl-4-yl-1-(3-hydroxypyridin-2-yl)-8-[(3-methylpyridin-2-yl)methyl]-1,3,8-triazaspiro[4.5]decane-2,4-dione] gave an IC50 of 20 to 50 nM.

The compound `CC(C)(C)OC(=O)CN1CCC2(CC1)C(=O)N(c1ccc(-c3ccccc3)cc1)C(=O)N2c1cnccn1` [Compound 2-2, tert-butyl (3-biphenyl-4-yl-2,4-dioxo-1-pyrazin-2-yl-1,3,8-triazaspiro[4.5]dec-8-yl)acetate] gave an IC50 above 50 nM.

As to `COc1ccnc(N2C(=O)N(c3ccc(-c4ccccc4)cc3)C(=O)C23CCN(Cc2nccn2CC(=O)O)CC3)n1` [Compound 1-21, (2-{[3-biphenyl-4-yl-1-(4-methoxypyrimidin-2-yl)-2,4-dioxo-1,3,8-triazaspiro[4.5]dec-8-yl]methyl}-1H-imidazol-1-yl)acetic acid], the IC50 lay within 0.5 to 20 nM.

On to `O=C(O)c1[nH]cnc1CN1CCC2(CC1)C(=O)N(c1ccc(-c3ccccc3)cc1)C(=O)N2c1ncccn1` [Compound 1-64, 4-[(3-biphenyl-4-yl-2,4-dioxo-1-pyrimidin-2-yl-1,3,8-triazaspiro[4.5]dec-8-yl)methyl]-1-H-imidazole-5-carboxylic acid], for which the IC50 lay in the range of 0.5 to 20 nM.

As to `COc1ccnc(CN2CCC3(CC2)C(=O)N(c2ccc(-c4ccc(C(=O)O)cc4)nc2)C(=O)N3c2cc(OC)ncn2)c1` [Compound 10-3, 4-(5-{8-[(4-methoxypyridin-2-yl)methyl]-1-(6-methoxypyrimidin-4-yl)-2,4-dioxo-1,3,8-triazaspiro[4.5]dec-3-yl}-pyridin-2-yl) benzoic acid], the IC50 was 0.5 to 20 nM.

Consider `CCOC(=O)C1CN(Cc2ncccc2C)CCC12C(=O)N(c1ccc(-c3ccccc3)cc1)C(=O)N2c1cc(O)ncn1` (single isomer, unassigned) [Compound 3-10, Ethyl 3-biphenyl-4-yl-1-(6-hydroxypyrimidin-4-yl)-8-[(3-methylpyridin-2-yl)methyl]-2,4-dioxo-1,3,8-triazaspiro[4.5]decane-6-carboxylate], for which the IC50 lay in the range of 0.5 to 20 nM.

`Cc1cccnc1CN1CCC2(CC1)C(=O)N(c1ccc(-c3ccccc3)cc1)C(=O)N2c1ncc(O)cn1` [Compound 1-10, 3-biphenyl-4-yl-1-(5-hydroxypyrimidin-2-yl)-8-[(3-methylpyridin-2-yl)methyl]-1,3,8-triazaspiro[4.5]decane-2,4-dione] yielded an IC50 of 0.5 to 20 nM.

As to `Cc1cccnc1CN1CCC2(CC1)C(=O)N(c1ccc(-c3ccccc3)cc1)C(=O)N2c1cccc(C(=O)O)n1` [Compound 1-14, 6-{3-biphenyl-4-yl-8-[(3-methylpyridin-2-yl)methyl]-2,4-dioxo-1,3,8-triazaspiro[4.5]dec-1-yl}pyridine-2-carboxylic acid], the IC50 is 0.5 to 20 nM.

As for `Cc1cccnc1CN1CCC2(CC1)C(=O)N(c1ccccc1)C(=O)N2c1nccc(O)n1` [Compound 1-3, 1-(4-hydroxypyrimidin-2-yl)-8-[(3-methylpyridin-2-yl)methyl]-3-phenyl-1,3,8-triazaspiro[4.5]decane-2,4-dione], the IC50 is above 50 nM.

The compound `CCCCOC(=O)c1[nH]cnc1CN1CCC2(CC1)C(=O)N(c1ccc(-c3ccccc3)cc1)C(=O)N2c1nccc(O)n1` [Compound 1-46, Butyl 4-{[3-biphenyl-4-yl-1-(4-hydroxypyrimidin-2-yl)-2,4-dioxo-1,3,8-triazaspiro[4.5]dec-8-yl]methyl}-1-H-imidazole-5-carboxylate] returned a concentration for half-maximal inhibition (IC50) of 20 to 50 nM.

On to `Cc1cccnc1CN1CCC2(CC1)C(=O)N(c1ccc(-c3ccccc3)cc1)C(=O)N2c1ccncn1` [Compound 1-68, 3-biphenyl-4-yl-8-[(3-methylpyridin-2-yl)methyl]-1-pyrimidin-4-yl-1,3,8-triazaspiro[4.5]decane-2,4-dione], for which the IC50 is 0.5 to 20 nM.

`CCOC(=O)c1ccc(N2C(=O)N(c3nccc(OC)n3)C3(CCN(Cc4ncccc4C)CC3)C2=O)cc1` [Compound 1-26, ethyl 4-{1-(4-methoxypyrimidin-2-yl)-8-[(3-methylpyridin-2-yl)methyl]-2,4-dioxo-1,3,8-triazaspiro[4.5]dec-3-yl}benzoate] registered an IC50 of 0.5 to 20 nM.

`CCOC(=O)C1CN(Cc2ncccc2C)CCC12C(=O)N(c1ccc(-c3ccccc3)cc1)C(=O)N2c1cc(O)ncn1` (centres unmarked) [Compound 3-6, Ethyl 3-biphenyl-4-yl-1-(6-hydroxypyrimidin-4-yl)-8-[(3-methylpyridin-2-yl)methyl]-2,4-dioxo-1,3,8-triazaspiro[4.5]decane-6-carboxylate] returned an IC50 of 0.5 to 20 nM.

Consider `O=C(O)CCn1ccnc1CN1CCC2(CC1)C(=O)N(c1ccc(-c3ccccc3)cc1)C(=O)N2c1nccc(O)n1` [Compound 1-24, 3-(2-{[3-biphenyl-4-yl-1-(4-hydroxypyrimidin-2-yl)-2,4-dioxo-1,3,8-triazaspiro[4.5]dec-8-yl]methyl}-1H-imidazol-1-yl)propanoic acid], for which the IC50 was 0.5 to 20 nM.

Compound `Cc1cccnc1CN1CCC2(CC1)C(=O)N(c1ccc(C(=O)O)cc1)C(=O)N2c1nccc(O)n1` [Compound 1-17, 4-{1-(4-hydroxypyrimidin-2-yl)-8-[(3-methylpyridin-2-yl)methyl]-2,4-dioxo-1,3,8-triazaspiro[4.5]dec-3-yl}benzoic acid] showed an IC50 above 50 nM.

In turn, `Cc1cccnc1CN1CCC2(CC1)C(=O)N(c1ccc(C3CC3C(=O)O)cc1)C(=O)N2c1ncccn1` (centres unmarked) [Compound 1-69, 2-(4-{8-[(3-methylpyridin-2-yl)methyl]-2,4-dioxo-1-pyrimidin-2-yl-1,3,8-triazaspiro[4.5]dec-3-yl}phenyl)cyclopropanecarboxylic acid] came in with an IC50 of 0.5 to 20 nM.

The same test, now with this note: read-out: PHD2 Binding Activity IC50.
In the case of `Cc1cccnc1CN1CCC2(CC1)C(=O)N(c1ccc(-c3ccccc3)cc1)C(=O)N2C(=O)N[C@@H](CO)C(=O)O` [Compound 5-6, N-({3-biphenyl-4-yl-8-[(3-methylpyridin-2-yl)methyl]-2,4-dioxo-1,3,8-triazaspiro[4.5]dec-1-yl}carbonyl)-L-serine], the IC50 was 0.5 to 20 nM.

`Cc1cccnc1CN1CCC2(CC1)C(=O)N(c1ccc(-c3ccccc3)cc1)C(=O)N2CC(=O)O` [Compound 2-7]: the IC50 was in the range of 0.5 to 20 nM.

Consider `Cc1cccnc1CN1CCC2(CC1)C(=O)N(c1ccc(-c3ccccc3)cc1)C(=O)N2C(=O)NC(C)(C)C(=O)O` [Compound 5-3, 2-[({3-biphenyl-4-yl-8-[(3-methylpyridin-2-yl)methyl]-2,4-dioxo-1,3,8-triazaspiro[4.5]dec-1-yl}carbonyl)amino]-2-methylpropanoic acid], for which the IC50 was 0.5 to 20 nM.

As for `Cc1cccnc1CN1CCC2(CC1)C(=O)N(c1ccc(-c3ccccc3)cc1)C(=O)N2C(=O)N[C@@H](C)C(=O)O` [Compound 5-5, (2S)-2-[({3-biphenyl-4-yl-8-[(3-methylpyridin-2-yl)methyl]-2,4-dioxo-1,3,8-triazaspiro[4.5]dec-1-yl}carbonyl)amino]propanoic acid], the IC50 lay in the range of 0.5 to 20 nM.

For `O=C(O)CN1CCC2(CC1)NC(=O)N(c1ccc(-c3ccccc3)cc1)C2=O` [Compound 4-1, (3-biphenyl-4-yl-2,4-dioxo-1,3,8-triazaspiro[4.5]dec-8-yl)acetic acid], the IC50 was above 50 nM.
